Laboratory results from PMC7349874, “High Content Screening Using New U2OS Reporter Cell Models Identifies Harmol Hydrochloride as a Selective and Competitive Antagonist of the Androgen Receptor” (Cells, 2020).
Counter-ions that a name gives are not always drawn. Like-named read-outs stand apart in the source and are kept apart here.

Experiments:
[1] = biological target: T1, full-length wild-type AR (hAR) (Homo sapiens, UniProt P10275); test: Transactivation (luciferase) assay in U2OS-hAR-ARE-Luc reporter cells, screen and validation; format: cell-based; settings: for Results of 1st screen on AR: 0.3, 1, 3, 10 µM, 16 h, hit = AR transcriptional activity changed by more than 50% dose-dependently, <20% effect in control cells; for Nature of AR inhibition (competitive or non-competitive): 1 nM versus 100 nM R1881
T1 sequence (P10275 1-920): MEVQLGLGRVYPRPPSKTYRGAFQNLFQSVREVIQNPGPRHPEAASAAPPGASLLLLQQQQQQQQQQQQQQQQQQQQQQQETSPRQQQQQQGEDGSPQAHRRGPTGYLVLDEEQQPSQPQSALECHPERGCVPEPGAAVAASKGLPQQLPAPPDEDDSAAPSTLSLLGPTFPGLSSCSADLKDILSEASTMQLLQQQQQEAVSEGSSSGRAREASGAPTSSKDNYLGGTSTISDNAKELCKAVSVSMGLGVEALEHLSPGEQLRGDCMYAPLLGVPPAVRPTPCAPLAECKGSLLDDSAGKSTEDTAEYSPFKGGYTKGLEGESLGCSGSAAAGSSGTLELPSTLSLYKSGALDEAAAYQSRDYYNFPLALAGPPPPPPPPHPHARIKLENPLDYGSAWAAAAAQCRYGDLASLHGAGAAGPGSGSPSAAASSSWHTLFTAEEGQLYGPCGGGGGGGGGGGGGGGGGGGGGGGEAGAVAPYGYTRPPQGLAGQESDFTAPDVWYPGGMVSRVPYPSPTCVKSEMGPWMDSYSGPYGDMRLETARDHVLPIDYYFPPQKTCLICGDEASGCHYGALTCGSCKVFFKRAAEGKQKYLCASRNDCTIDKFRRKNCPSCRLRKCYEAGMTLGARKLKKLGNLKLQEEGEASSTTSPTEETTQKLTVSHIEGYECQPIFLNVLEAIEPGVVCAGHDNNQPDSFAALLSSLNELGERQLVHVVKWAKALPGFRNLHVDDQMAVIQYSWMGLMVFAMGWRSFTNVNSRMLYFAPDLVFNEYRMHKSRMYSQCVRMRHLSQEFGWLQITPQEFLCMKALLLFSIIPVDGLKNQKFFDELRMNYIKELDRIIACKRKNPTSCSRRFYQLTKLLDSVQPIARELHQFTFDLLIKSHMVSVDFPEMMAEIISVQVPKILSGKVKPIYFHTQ
Procedure: U2OS-hAR-ARE(Rad9)-Luc and U2OS-hARv7-ARE(PB)-Luc were then used to screen the Prestwick phytochemical library®, containing 320 natural compounds, at four concentrations (0.3, 1, 3, 10 µM) in duplicate.

[2] = system: U2OS-ARE-Luc control cells; test: Luciferase activity in U2OS-ARE-Luc control cells; settings: validation, up to 3 µM, 16 h

COc1ccc(-c2cc(=O)c3c(O)cc(O)cc3o2)cc1 [Acacetin]
Results of 1st screen on AR [1]: No effect

C[C@@H]1O[C@@H](O[C@H]2C(=O)c3c(O)cc(O)cc3O[C@@H]2c2ccc(O)c(O)c2)[C@H](O)[C@H](O)[C@H]1O [Astilbin]
Results of 1st screen on AR [1]: No effect

COc1ccc2cc3n(c(=O)c2c1OC)CCc1cc2c(cc1-3)OCO2 [Berlambine]
Results of 1st screen on AR [1]: No effect

C=C(C)[C@@H]1CC[C@]2(C(=O)O)CC[C@]3(C)[C@H](CC[C@@H]4[C@@]5(C)CC[C@H](O)C(C)(C)[C@@H]5CC[C@]43C)[C@@H]12 [Betulinic acid]
Results of 1st screen on AR [1]: No effect

NCCC(O)C(=O)NC1CC(N)C(OC2OC(CN)C(O)[C@H](O)[C@@H]2N)[C@H](OC2O[C@H](CO)[C@@H](O)[C@@H]2O)[C@@H]1O.O=S(=O)(O)O.O=S(=O)(O)O (stereo partly shown) [Butirosin disulfate salt]
Results of 1st screen on AR [1]: No effect

NC(N)=NOCC[C@H](N)C(=O)O.O.O=S(=O)(O)O [Canavanine sulfate monohydrate (L,+)]
Results of 1st screen on AR [1]: No effect

COc1cc(O)cc(O)c1C(=O)/C=C/c1ccccc1 [Cardamonin]
Results of 1st screen on AR [1]: No effect

COc1c2c(cc3oc(CO)cc(=O)c13)O[C@H](C(C)(C)O)C2 [Cimifugin]
Results of 1st screen on AR [1]: No effect

C[C@H]1[C@H]2CC[C@H]3[C@@H]4CC=C5C[C@@H](N(C)C)CC[C@]5(C)[C@H]4CC[C@]23CN1C [Conessine]
Results of 1st screen on AR [1]: No effect

O=c1c(-c2ccc(O)cc2)coc2cc(O[C@@H]3O[C@H](CO)[C@@H](O)[C@H](O)[C@H]3O)cc(O)c12 [Genistin]
Results of 1st screen on AR [1]: No effect

CN(C)Cc1c[nH]c2ccccc12 [Gramine]
Results of 1st screen on AR [1]: No effect

COc1ccc2c3c([nH]c2c1)C(C)=NCC3 [Harmaline hydrochloride dihydrate]
Results of 1st screen on AR [1]: No effect
Results of 1st screen on AR ([1]; listed as harmaline): inactive

CC1=NCCc2c1[nH]c1cc(O)ccc21 [Harmalol hydrochloride dihydrate]
Results of 1st screen on AR [1]: No effect
Results of 1st screen on AR ([1]; listed as harmalol): inactive

Cc1nccc2c1[nH]c1ccccc12 [Harmane hydrochloride]
Results of confirmatory screen (validation of AR inhibition) [1]: Not confirmed
Results of 1st screen on AR [1]: Inhibition
Results of 1st screen on AR ([1]; listed as harmane): active inhibitors of AR transcriptional activity

COc1ccc2c(c1)[nH]c1c(C)nccc12 [Harmine hydrochloride]
Results of confirmatory screen (validation of AR inhibition) [1]: Confirmed
Nature of AR inhibition (competitive or non-competitive) [1]: non-competitive manner
Results of 1st screen on AR [1]: Inhibition
Results of 1st screen on AR ([1]; listed as harmine): active inhibitors of AR transcriptional activity
Results of confirmatory screen (validation of AR inhibition) ([1]; listed as harmine): could impair the transcriptional activity of AR
Effect on luciferase activity in control cells [2]: no effect

COc1ccc([C@@H]2CC(=O)c3c(O)cc(O[C@@H]4O[C@H](CO[C@@H]5O[C@@H](C)[C@H](O)[C@@H](O)[C@H]5O)[C@@H](O)[C@H](O)[C@H]4O)cc3O2)cc1O [Hesperidin]
Results of 1st screen on AR [1]: No effect

Br.CC[C@H]1CN2CCC1C[C@H]2[C@H](O)c1ccnc2ccc(OC)cc12.O (stereo partly shown) [Hydroquinine hydrobromide hydrate]
Results of 1st screen on AR [1]: No effect

O=C1Nc2ccccc2/C1=C1/Nc2ccccc2C1=O [Indirubin]
Results of 1st screen on AR [1]: No effect

CC1=C2C(=O)[C@H]3[C@@H](CC=C4C[C@@H](O)CC[C@@]43C)[C@@H]2CC[C@]12O[C@@H]1C[C@H](C)CN[C@H]1[C@H]2C [Jervine]
Results of 1st screen on AR [1]: No effect

O=C1CCC[C@@H]2[C@H]3CCCN4CCC[C@@H](CN12)[C@@H]34 [Matrine]
Results of 1st screen on AR [1]: No effect

C=C(C)[C@@H]1[C@H]2OC(=O)[C@@H]1[C@]1(O)C[C@H]3O[C@]34C(=O)O[C@H]2[C@]14C [Picrotoxinin]
Results of 1st screen on AR [1]: No effect

CC[C@@H](C)C(=O)O[C@H]1[C@H](O)[C@H]2[C@@H](CN3C[C@@H](C)CC[C@H]3[C@@]2(C)O)[C@@H]2C[C@]34O[C@]5(O)[C@@H](OC(=O)[C@@](C)(O)CC)CC[C@@]3(C)[C@@H]5[C@@H](OC(C)=O)[C@@H](OC(C)=O)[C@H]4[C@@]21O [Protoveratrine A]
Results of 1st screen on AR [1]: No effect

CN1[C@@H]2CCC[C@H]1CC(=O)C2.Cl [Pseudopelletierine hydrochloride]
Results of 1st screen on AR [1]: No effect

O=c1c2ccccc2nc2n1CCc1c-2[nH]c2ccccc12 [Rutaecarpine]
Results of 1st screen on AR [1]: No effect

C[C@@H]1O[C@@H](OC[C@H]2O[C@@H](Oc3c(-c4ccc(O)c(O)c4)oc4cc(O)cc(O)c4c3=O)[C@H](O)[C@@H](O)[C@@H]2O)[C@H](O)[C@H](O)[C@H]1O [Rutin]
Results of 1st screen on AR [1]: No effect

OCc1ccccc1O[C@@H]1O[C@H](CO)[C@@H](O)[C@H](O)[C@H]1O [Salicin]
Results of 1st screen on AR [1]: No effect

C[C@@H]1NCCc2cc(O)c(O)cc21 [Salsolinol hydrobromide]
Results of 1st screen on AR [1]: No effect

COc1ccc2c(OC)c3ccoc3nc2c1OC [Skimmianine]
Results of 1st screen on AR [1]: No effect

C[C@@H]1CC[C@@]2(NC1)O[C@H]1C[C@H]3[C@@H]4CC=C5C[C@@H](O)CC[C@]5(C)[C@H]4CC[C@]3(C)[C@H]1[C@@H]2C [Solasodine]
Results of 1st screen on AR [1]: No effect

C[N+]1(C)CCC[C@H]1C(=O)[O-].Cl [Stachydrine hydrochloride]
Results of 1st screen on AR [1]: No effect

O=c1cc(-c2ccc(O)cc2)oc2c([C@@H]3O[C@H](CO)[C@@H](O)[C@H](O)[C@H]3O)c(O)cc(O)c12 [Vitexin]
Results of 1st screen on AR [1]: No effect

C[C@]12CC[C@H](O)C[C@H]1CC[C@@H]1[C@@H]2CC[C@]2(C)[C@@H](C3=CC(=O)OC3)CC[C@]12O [digitoxigenin]
Results of 1st screen on AR [1]: active inhibitors of AR transcriptional activity

Cc1c2ccncc2c(C)c2c1[nH]c1ccccc12 [ellipticine]
Nature of AR inhibition (competitive or non-competitive) [1]: non-competitive manner
Results of 1st screen on AR [1]: active inhibitors of AR transcriptional activity
Results of confirmatory screen (validation of AR inhibition) ([1]; six concentrations, absence or presence of 1 nM or 100 nM R1881): could impair the transcriptional activity of AR
Effect on luciferase activity in control cells [2]: no effect

C=CCc1ccc(O)c(-c2ccc(O)c(CC=C)c2)c1 [honokiol]
Results of 1st screen on AR [1]: active inhibitors of AR transcriptional activity

COc1ccc2[nH]c3c(c2c1)CCN=C3C [methoxy-6-harmalan]
Results of 1st screen on AR [1]: inactive

CN1CCc2cc3c(c4c2C1Cc1ccccc1-4)OCO3 (stereo not shown) [remerine]
Results of 1st screen on AR [1]: active inhibitors of AR transcriptional activity

Evodiamine
Results of 1st screen on AR [1]: No effect

Foliosidine
Results of 1st screen on AR [1]: No effect

Retrorsine
Results of 1st screen on AR [1]: No effect

strophantin
Results of 1st screen on AR [1]: active inhibitors of AR transcriptional activity
